Source: patent US9895390B2, “Methods and assays for combination treatment of cancer” (CHILDREN'S MEDICAL CENTER CORPORATION, priority 2012, dated 2018)

Experiments:
[1] = test system: sensitized and protected NSCLC cell lines; experiment: 7AAD cell cycle flow cytometry; type: cell-based, human
Protocol: Cell lines were plated at 1.5×10^6 cells per 10 cm plate and treated with drug for 4 days. Cells were then dissociated, fixed with 100% ice cold Ethanol for at least 2 hours, incubated for 30 minutes with 1 mg/mL RNase A and resuspended in 20 μg/mL 7AAD. 30,000 events were collected on the BD Facscalibur™ and analyzed with the ModFit LT™ software. In cases where etoposide treated cells had such abnormal ploidy that ModFit LT™ was unable to correctly model the cell cycle, the data was analyzed manually on FlowJo™ software by setting the gates on the etoposide sample and copying them to the etoposide+DZNep and etoposide shEZH2 samples.
For 7AAD-cell cycle analysis, cell lines were plated at 1.5×10^6 cells per 10 cm plate and treated with drug for 4 days. Cells were then dissociated, fixed with 100% ice cold Ethanol for at least 2 hours, incubated for 30 minutes with 1 mg/mL DNase-free RNase A (Thermo) and resuspended in 20 μg/mL 7-Aminoactinomycin D (7AAD; Invitrogen). 30,000 events were collected on the BD FORTESSA™ and analyzed with the MODFIT LT™ software. Results from three to four independent biological replicate experiments were averaged for each cell line.

[2] = test system: p57, p21, p27, Brg1 and EGFR expression; experiment: Quantitative RT-PCR in treated cell lines; type: cell-based, human; conditions: Sw1573, Calu6, H23, H460 and PC9; 1 μM DZNep, 4 days
Protocol: RNA from treated cell lines was extracted from using Trizol. Equal amounts of RNA were incubated with DNAse I before cDNA was made using the SuperScript III™ kit (Invitrogen). Relative gene expression was assayed with Sybr green on the StepOnePlus™ Real-Time PCR System (Applied Biosystems). Relative expression was calculated by Gene of Interest (Ctreference-Ctexprimental)-CYPA(Ctreference-Ctexperimental) and graphed on the log 2 scale. For all experiments, the reference sample was a matched untreated or control transduced cell line. Primer sequences:
RNA from treated cell lines was extracted using Absolutely RNA™ kits (Agilent) and cDNA was made using the SuperScript III™ kit (Invitrogen). Relative gene expression was assayed with Sybr green on the StepOnePlus™ Real-Time PCR System (Applied Biosystems). Relative expression was calculated by Gene of Interest(Ctreference-Ctexperimental)-CYPA(Ctreference-Cteexperimental) and graphed on the log 2 scale. For all experiments, the reference sample was a matched untreated or control transduced cell line.

human NSCLC lines = experiment: Cell line growth, 4 days (Cell Titer Glo); type: cell-based; conditions: 1 μM DZNep
Protocol: (§1) Cell lines were dissociated, counted and plated at 5000 cells per well in flat bottom opaque tissue culture treated 96 well plates (CytoOne). Edge wells were filled with PBS. The following day, 2× drug diluted in media was added to each well such that the well then contained 100 ul media with 1× drug concentration. After 4 days, Cell Titer Glo™ (Promega) was added and luminescence was read on a BioTec plate reader to determine relative cell number in each well. Data were averaged for triplicate or quadruplicate technical replicates, normalized to the untreated wells and input into GraphPad Prism software to extrapolate IC50.
as §1, with “concentration at the following doses: etoposide; 0, 0.1, 1, 3, 5, 7, 10, 50, 100, 500 μM, cisplatin; 0, 0.1, 1, 5, 10, 30, 70, 100, 500 μM, or doxorubicin; 0, 0.01, 0.1, 0.5, 1, 3, 5, 7, 10, 50 μM.” for “concentration.”, “CELLTITER-GLO™” for “Cell Titer Glo™”, “replicates and” for “replicates,”, “wells. […]” for “wells and input into GraphPad Prism software to extrapolate IC50.”

## Nc1nccc2c1ncn2[C@@H]1C=C(CO)[C@@H](O)[C@H]1O [DZNep, 3-Deazaneplanocin A]
[1]; protected cell lines, 10 μM etoposide + 1 μM DZNep, 4 days
  average fewer cells in S phase vs etoposide alone: 10%
[1]; protected lines, 5 μM etoposide, DZNep 1 μM or shEZH2, 4 days
  average fewer cells in S phase vs etoposide alone: 14%
[1]; sensitized cell lines, 10 μM etoposide + 1 μM DZNep, 4 days
  average more cells in S phase in response to DZNep: 20%
[1]; sensitized lines, 5 μM etoposide, DZNep 1 μM or shEZH2, 4 days
  average more cells in S phase: 14%
[2]
  BRG1 transcript: reproducibly increased
Human NSCLC lines; 4-day time point
  average reduction in growth of the cell lines: 20%
Human NSCLC lines; 4-day time-point, panel of 26 lines
  cell lines showing a significant reduction in growth: 11 of 26
